Measured values as given in patent US20220211792A1, “COMPOSITION CONTAINING NATURAL EXTRACTS FOR ENHANCEMENT OF INNATE IMMUNITY OR ANTIVIRAL USE AGAINST INFLUENZA VIRUS OR CORONA VIRUS” (OKCHUNDANG CO., LTD., priority 2021, published 2022).

B1: IFN-β: mouse IFN-β (1,000 units/ml), positive control (protein, UniProt P01575 22-182, looked up)
Interferon beta: INYKQLQLQERTNIRKCQELLEQLNGKINLTYRADFKIPMEMTEKMQKSYTAFAIQEMLQNVFLVFRNNFSSTGWNETIVVRLLDELHQQTVFLKTVLEEKQEERLTWEMSSTALHLKSYYWRVQRYLKLMKYNSYAWMVVRAEIFRNFLIIRRLTRNFQN

Columns and labels:
IAV = assay type: cell-based, influenza A virus
[1] = tested on: influenza virus A/PR/8/34-GFP; assay type: cell-based
[2] = tested on: influenza virus (A/PR/8/34-GFP); assay type: cell-based

| Molecule | levels of IAV proteins compared with untreated cells (IAV) | level of GFP compared with untreated cells [1] | GFP (influenza virus infection rate) [2] |
| --- | --- | --- | --- |
| O=C(/C=C/c1ccc(O)c(O)c1)O[C@@H]1C[C@](O)(C(=O)O)C[C@@H](O)[C@H]1O [chlorogenic acid] | suppressed | lower |  |
| CC(C)=CCC[C@](C)(O[C@@H]1O[C@H](CO)[C@@H](O)[C@H](O)[C@H]1O)[C@H]1CC[C@]2(C)[C@@H]1[C@H](O)C[C@@H]1[C@@]3(C)CC[C@H](O[C@@H]4O[C@H](CO)[C@@H](O)[C@H](O)[C@H]4O[C@@H]4O[C@H](CO)[C@@H](O)[C@H](O)[C@H]4O)C(C)(C)[C@@H]3CC[C@]12C [ginsenoside Rd] | suppressed | lower |  |
| B1 |  |  | 1.45 |
